According to US20060019329A1, “Method of screening for protein inhibitors and activators” (priority 1988, published 2006):
pKd: −log10 of the molar value.

Tests used:
[1] = system: cell lines overproducing PKC; assay: Growth in agar of cell lines overproducing PKC (further screening of activators and inhibitors); assay type: cell-based, rat; conditions: for modulation of the growth of the cells: PKC-overproducing cell lines, known activators or inhibitor of PKC
Protocol: (§1) Cells were seeded at a density of 10^4/plate in a series of 60 mm plates, in 5 ml DMEM plus 10% CS. Twenty-four hours later, cells in triplicate plates were trypsinized and counted. This point was designated “day 0.” The remaining cultures were then grown in the respective medium (i.e. plus or minus 100 ng/ml TPA) with fresh medium changes twice per week. Cell counts per plate were then determined on triplicate plates during the remainder of the growth curve (FIG. 3). The results obtained were analyzed for exponential doubling time and saturation density (Table 2). To assess growth in soft agar (anchorage independence), 2×10^4 cells were suspended in 2 ml of 0.3% Bacto agar (Difco Laboratories, Detroit, Mich.) in DMEM containing 20% fetal calf serum (FCS) and overlayed above a layer of 5 ml of 0.5% agar in the same medium, on 60 mm petri dishes. The cells were then overlaid with DMEM plus 20% FCS every 4 days. At the end of 30 days, colonies were stained with the vital stain 2-(p-iodophenyl)-3-(p-nitrophenyl)-5-phenyltetrazolinium chloride hydrate (INT) (Sigma Chemical Co., St. Louis, Mo.) for 48 hours at 37° C., in an incubator with 5% CO2 (Schaeffer and Friend, 1976), and the number of colonies counted under low power on an inverted phase microscope. The data are expressed as “cloning efficiency”, i.e. number of colonies greater than 0.05 mm per plate X 100 divided by the number of cells originally seeded per plate.
Additional compounds tested included the tumor promoters teleocidin, aplysiatoxin, and mezerein, all of which are known activators of PKC (O'Brian, et al., CSH, 1985).
Inhibition of the growth of the R6-PKC3 cells in agar in the presence of tamoxifen provided critical evidence that tamoxifen could inhibit PKC-mediated stimulation of cellular growth.

[2] = biological target: high affinity phorbol-ester binding sites (PKC); conditions: read-out: affinity constant (Kd) of phorbol ester binding; control cell line R6-C1; intact cells; Scatchard; approximately the same in both cell lines
Protocol: Cells were plated at 1×10^5 per 4 cm well on day 1, the medium was changed on day 2 and the cells then assayed on day 3. […] The plates were washed 3× with 4 ml ice-cold PBS. The cells were solubilized in 1 ml 1% SDS/10 mM DTT for 2 hrs at 37° C. The lysate was transferred to a scintillation vial and counted.

PKC = conditions: cell-free assay (O'Brian, et al, Cancer Res., 1985); cited from earlier work
[3] = system: R6-PKC5 cells (Rat 6 fibroblasts overproducing PKCbeta1); assay: Growth in soft agar (anchorage independence), R6-PKC5; assay type: cell-based; conditions: R6-PKC5
Protocol: as §1
(§2) I also assayed these cell lines for their ability to form colonies in soft agar, since with rodent cells the acquisition of anchorage-independent growth often correlates with tumorigenicity (Freedman and Shin, 1974).

[4] = system: R6-PKC3 cells (Rat 6 fibroblasts overproducing PKCbeta1); assay: Growth in soft agar (anchorage independence), R6-PKC3; assay type: cell-based; conditions: R6-PKC3
Protocol: as §1, §2

SMILES: CO[C@@H](CC[C@H](C)[C@H]1O[C@@]23C[C@H](OC(=O)C[C@H]([C@@H](C)O)OC(=O)C[C@](O)(O2)[C@H](C)CC3(C)C)[C@@H]1C)c1cc(O)ccc1Br [aplysiatoxin]
- modulation of the growth of the cells [1]: modulated the growth of the cells in the expected manner

SMILES: CCCC(=O)O[C@@H]1[C@@H](C)[C@@]2(O)[C@@H](C=C(CO)C[C@]3(O)C(=O)C(C)=C[C@@H]23)[C@@H]2C(C)(C)[C@]12OC(=O)CCC [3H-PDBu]
- pKd [2]: 7.80

SMILES: CC/C(=C(\c1ccccc1)c1ccc(OCCN(C)C)cc1)c1ccccc1 [Tamoxifen, tamoxifen]
- effect on PKC enzyme activity (PKC): inhibits PKC enzyme activity
- Effic. of Growth In Agar (%) ([3]; inhibitor 5 μM): 19%
- Effic. of Growth In Agar (%) ([3]; inhibitor 20 μM): 17%
- Effic. of Growth In Agar (%) ([3]; inhibitor 50 μM): 8%
- Effic. of Growth In Agar (%) ([3]; inhibitor 100 μM): 0%
- Effic. of Growth In Agar (%) ([3]; inhibitor 200 μM): 0%
- inhibition of growth in agar ([1]; all of the cell lines overproducing PKC): completely inhibiting the growth in agar
- Effic. of Growth In Agar (%) ([4]; inhibitor 5 μM): 27%
- Effic. of Growth In Agar (%) ([4]; inhibitor 20 μM): 22%
- Effic. of Growth In Agar (%) ([4]; inhibitor 50 μM): 15%
- Effic. of Growth In Agar (%) ([4]; inhibitor 100 μM): 6%
- Effic. of Growth In Agar (%) ([4]; inhibitor 200 μM): 0%

SMILES: CC1CNCCN1S(=O)(=O)c1cccc2cnccc12 (stereo not shown) [H-7, 1-(5-Isoquinolinesulfonyl)-2-methyl-piperazine]
- Effic. of Growth In Agar (%) ([3]; inhibitor 2 μM): 21%
- Effic. of Growth In Agar (%) ([3]; inhibitor 5 μM): 16%
- Effic. of Growth In Agar (%) ([3]; inhibitor 10 μM): 4%
- Effic. of Growth In Agar (%) ([3]; inhibitor 50 μM): 1%
- Effic. of Growth In Agar (%) ([3]; inhibitor 100 μM): 0%
- modulation of the growth of the cells [1]: modulated the growth of the cells in the expected manner
- Effic. of Growth In Agar (%) ([4]; inhibitor 2 μM): 25%
- Effic. of Growth In Agar (%) ([4]; inhibitor 5 μM): 22%
- Effic. of Growth In Agar (%) ([4]; inhibitor 10 μM): 17%
- Effic. of Growth In Agar (%) ([4]; inhibitor 50 μM): 4%
- Effic. of Growth In Agar (%) ([4]; inhibitor 100 μM): 0%
